According to patent EP2505659A1, “Methods for the identification of dioxygenase interacting molecules and for the purification of dioxygenase proteins” (CELLZOME AG, priority 2011, dated 2012):
Where a name gives a salt, the structure may show the parent alone. Read-outs that look alike come from different tables or passages of the source.

Tests used:
Test in all cases: Bead competition binding assay, immobilized compound A, K-562, HL-60 and Jurkat nuclear lysates
FTO = molecular target: T1, FTO (Homo sapiens, UniProt Q9C0B1); conditions: 100 µM free compound A, read-out: Fold change versus DMSO control
T1 construct: endogenous in cells
T1 sequence (Q9C0B1 whole entry): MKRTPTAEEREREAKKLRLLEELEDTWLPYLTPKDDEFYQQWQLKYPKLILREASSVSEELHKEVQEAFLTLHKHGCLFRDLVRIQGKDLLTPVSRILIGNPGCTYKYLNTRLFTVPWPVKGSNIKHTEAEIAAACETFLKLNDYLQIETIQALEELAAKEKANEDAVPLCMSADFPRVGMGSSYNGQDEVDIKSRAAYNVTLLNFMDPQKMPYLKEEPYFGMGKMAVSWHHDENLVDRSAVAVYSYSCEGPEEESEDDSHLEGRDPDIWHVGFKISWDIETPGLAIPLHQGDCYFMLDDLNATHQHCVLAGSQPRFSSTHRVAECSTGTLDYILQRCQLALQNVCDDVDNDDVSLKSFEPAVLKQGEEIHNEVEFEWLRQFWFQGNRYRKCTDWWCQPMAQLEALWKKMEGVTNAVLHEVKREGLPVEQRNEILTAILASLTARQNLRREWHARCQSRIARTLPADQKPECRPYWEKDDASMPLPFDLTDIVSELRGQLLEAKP
Text: (§1) K562 cells were also purchased from DSMZ (Braunschweig, Germany).
(§2) Table 5: Peptide elution off the LC system

ALKBH3 = molecular target: T2, ALKBH3 (Homo sapiens, UniProt Q96Q83); conditions: 100 µM free compound A, read-out: Fold change versus DMSO control
T2 construct: capturing and identification of dioxygenases from nuclear protein extracts; endogenous in cells
T2 sequence (Q96Q83 1-286): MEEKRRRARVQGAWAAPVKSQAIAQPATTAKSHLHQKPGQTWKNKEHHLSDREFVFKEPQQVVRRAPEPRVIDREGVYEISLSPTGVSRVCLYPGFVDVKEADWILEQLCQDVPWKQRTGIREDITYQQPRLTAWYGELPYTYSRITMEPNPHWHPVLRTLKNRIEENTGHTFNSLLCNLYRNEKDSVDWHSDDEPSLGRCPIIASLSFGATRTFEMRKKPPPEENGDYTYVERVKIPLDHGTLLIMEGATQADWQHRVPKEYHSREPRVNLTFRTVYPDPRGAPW
Text: as §1, §2

EGLN1 = molecular target: T3, EGLN1 (Homo sapiens, UniProt Q9GZT9); conditions: 100 µM free compound A, read-out: Fold change versus DMSO control
T3 construct: endogenous in cells
T3 sequence (Q9GZT9 whole entry): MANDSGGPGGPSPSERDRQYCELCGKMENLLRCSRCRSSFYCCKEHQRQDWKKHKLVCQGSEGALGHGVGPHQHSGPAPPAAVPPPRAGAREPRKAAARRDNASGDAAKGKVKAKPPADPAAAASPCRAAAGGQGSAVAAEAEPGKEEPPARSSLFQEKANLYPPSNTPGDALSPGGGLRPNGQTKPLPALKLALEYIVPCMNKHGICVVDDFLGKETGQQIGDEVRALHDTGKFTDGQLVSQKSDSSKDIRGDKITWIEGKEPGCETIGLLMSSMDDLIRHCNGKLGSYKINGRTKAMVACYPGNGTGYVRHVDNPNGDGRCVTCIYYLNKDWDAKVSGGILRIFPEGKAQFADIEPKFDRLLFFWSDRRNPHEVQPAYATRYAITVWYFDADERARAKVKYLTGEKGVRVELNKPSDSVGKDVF
Text: as §1, §2

PLOD3 = molecular target: T4, PLOD3 (Homo sapiens, UniProt O60568); conditions: 100 µM free compound A, read-out: Fold change versus DMSO control
T4 construct: capturing and identification of dioxygenases from nuclear protein extracts; endogenous in cells
T4 sequence (O60568 25-738): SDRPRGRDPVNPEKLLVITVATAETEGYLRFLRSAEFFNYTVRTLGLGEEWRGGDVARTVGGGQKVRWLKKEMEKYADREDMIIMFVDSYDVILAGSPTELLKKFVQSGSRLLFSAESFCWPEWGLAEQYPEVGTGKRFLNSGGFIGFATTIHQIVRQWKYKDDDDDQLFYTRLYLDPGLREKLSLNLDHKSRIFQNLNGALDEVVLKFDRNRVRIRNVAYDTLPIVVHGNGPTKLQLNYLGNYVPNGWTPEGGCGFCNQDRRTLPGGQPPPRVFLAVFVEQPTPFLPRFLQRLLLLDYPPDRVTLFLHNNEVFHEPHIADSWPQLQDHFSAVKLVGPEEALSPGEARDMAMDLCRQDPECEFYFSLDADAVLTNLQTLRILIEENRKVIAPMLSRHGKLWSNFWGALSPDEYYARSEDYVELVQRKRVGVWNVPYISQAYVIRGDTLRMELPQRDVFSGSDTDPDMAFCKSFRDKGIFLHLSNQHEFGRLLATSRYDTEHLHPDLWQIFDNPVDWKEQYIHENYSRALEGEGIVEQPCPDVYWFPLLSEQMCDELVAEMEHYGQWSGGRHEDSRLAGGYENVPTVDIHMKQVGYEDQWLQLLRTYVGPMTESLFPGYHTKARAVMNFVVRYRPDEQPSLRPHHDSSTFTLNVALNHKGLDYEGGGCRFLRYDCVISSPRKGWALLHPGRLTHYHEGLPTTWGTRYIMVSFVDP
Text: as §1, §2

C17ORF101 = molecular target: T5, C17ORF101 (Homo sapiens, UniProt Q6PK18); conditions: read-out: Fold change versus DMSO control, C17ORF101; 100 µM free compound A; HL-60 nuclear lysate
T5 construct: capturing and identification of dioxygenases from nuclear protein extracts; endogenous in cells
T5 sequence (Q6PK18 1-331 isoform Q6PK18-2): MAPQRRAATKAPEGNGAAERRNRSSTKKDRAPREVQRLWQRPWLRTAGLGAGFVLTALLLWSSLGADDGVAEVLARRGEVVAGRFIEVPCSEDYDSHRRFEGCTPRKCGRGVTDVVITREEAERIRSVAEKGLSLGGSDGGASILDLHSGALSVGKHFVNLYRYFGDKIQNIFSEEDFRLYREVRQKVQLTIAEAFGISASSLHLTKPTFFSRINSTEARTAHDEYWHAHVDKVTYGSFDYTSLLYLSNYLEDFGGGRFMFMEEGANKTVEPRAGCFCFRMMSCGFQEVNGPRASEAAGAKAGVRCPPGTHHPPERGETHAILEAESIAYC
Text: (§3) The proteins bound to the immobilized compound were eluted with detergent-containing buffer and separated on a SDS-polyacryamide gel. […] Table 4: Compound treatment and TMT-labeling of cell samples
(§4) Jurkat cells (ATCC number TIB-152) were either obtained from an external supplier (CIL SA, Mons, Belgium) or grown in one litre Spinner flasks (Integra Biosciences, #182101) in suspension in RPMI 1640 medium (Invitrogen, #21875-034) supplemented with 10% Fetal Bovine Serum (Invitrogen, #10270-106) at a density between 0.2 x 10^6 and 1.0 x 10^6 cells/ml. Cells were harvested by centrifugation, washed once with 1 x PBS buffer (Invitrogen, #14190-094) and cell pellets were frozen in liquid nitrogen and subsequently stored at -80°C.
(§5) Source of HL-60 cells: HL-60 cell line (DSMZ, Braunschweig, Germany; DSMZ number ACC3). K562 cells were also purchased from DSMZ (Braunschweig, Germany).
(§6) Extracts of nuclei were prepared according to the Dignam protocol (Dignam et al., 1983. Nucleic Acids Res. 11 (5):1475-89).
(§7) The TMT reagents are a set of multiplexed, amine-specific, stable isotope reagents that can label peptides on amino groups in up to six different biological samples enabling simultaneous identification and quantitation of peptides. The TMT reagents were used according to instructions provided by the manufacturer. The samples were resuspended in 10 µl 50 mM TEAB solution, pH 8.5 and 10 µl acetonitril were added. The TMT reagent was dissolved in acetonitrile to a final concentration of 24 mM and 10 µl of reagent solution were added to the sample. The labeling reaction was performed at room temperature for one hour on a horizontal shaker and stopped by adding 5 µl of 100 mM TEAB and 100 mM glycine in water. The labeled samples were then combined, dried in a vacuum centrifuge and resuspended in 60% 200mM TEAB / 40% acetonitril.
as §2
(§8) Search criteria varied depending on which mass spectrometer was used for the analysis.

P4HA1 = molecular target: T6, P4HA1 (Homo sapiens, UniProt P13674); conditions: read-out: Fold change versus DMSO control, P4HA1, 100 µM free compound A
T6 construct: endogenous in cells
T6 sequence (P13674 18-534): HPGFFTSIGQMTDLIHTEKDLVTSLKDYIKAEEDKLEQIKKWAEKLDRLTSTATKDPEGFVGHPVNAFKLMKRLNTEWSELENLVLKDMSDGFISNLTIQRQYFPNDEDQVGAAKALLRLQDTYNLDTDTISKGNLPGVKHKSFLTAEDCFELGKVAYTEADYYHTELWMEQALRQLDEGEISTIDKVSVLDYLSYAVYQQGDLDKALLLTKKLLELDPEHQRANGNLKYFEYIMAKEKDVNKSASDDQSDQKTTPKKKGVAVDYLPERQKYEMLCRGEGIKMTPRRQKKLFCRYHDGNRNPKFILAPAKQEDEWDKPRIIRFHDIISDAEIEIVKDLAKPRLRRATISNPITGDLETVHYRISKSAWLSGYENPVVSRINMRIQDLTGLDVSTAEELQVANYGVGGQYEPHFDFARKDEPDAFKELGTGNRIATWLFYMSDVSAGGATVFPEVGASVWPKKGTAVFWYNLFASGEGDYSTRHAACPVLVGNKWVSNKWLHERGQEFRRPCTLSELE
T6 sequence (P07237 18-508 partner): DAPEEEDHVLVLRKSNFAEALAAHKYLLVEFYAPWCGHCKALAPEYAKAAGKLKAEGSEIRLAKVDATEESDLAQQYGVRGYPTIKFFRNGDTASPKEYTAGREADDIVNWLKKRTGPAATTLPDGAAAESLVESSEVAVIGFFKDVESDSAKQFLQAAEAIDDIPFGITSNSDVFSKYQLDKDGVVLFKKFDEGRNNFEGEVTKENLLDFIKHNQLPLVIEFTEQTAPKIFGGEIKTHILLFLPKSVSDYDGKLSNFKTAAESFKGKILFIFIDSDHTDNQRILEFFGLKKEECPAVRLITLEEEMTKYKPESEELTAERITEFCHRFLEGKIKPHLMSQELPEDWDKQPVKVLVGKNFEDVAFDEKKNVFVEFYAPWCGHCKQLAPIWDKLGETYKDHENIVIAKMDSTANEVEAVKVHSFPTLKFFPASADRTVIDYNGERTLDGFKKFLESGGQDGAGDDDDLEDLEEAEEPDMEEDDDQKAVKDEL
Text: as §3, §4, §5, §6, §7, §2, §8

## O=C(O)CNC(=O)C1C(=O)OC2(CCNCC2)OC1=O [compound A, 2-(2,4-dioxo-1,5-dioxa-9-azaspiro[5.5]undecane-3-carboxamido)acetic acid hydrochloride]
FTO; Jurkat nuclear lysate
  remaining binding at 100 µM: 8%
FTO; K-562 nuclear lysate
  remaining binding at 100 µM: 19%
ALKBH3; HL-60 nuclear lysate
  remaining binding at 100 µM: 36%
ALKBH3; Jurkat nuclear lysate
  remaining binding at 100 µM: 32%
EGLN1; HL-60 nuclear lysate
  remaining binding at 100 µM: 24%
EGLN1; Jurkat nuclear lysate
  remaining binding at 100 µM: 13%
PLOD3; Jurkat nuclear lysate
  remaining binding at 100 µM: 161%
PLOD3; K-562 nuclear lysate
  remaining binding at 100 µM: 52%
C17ORF101
  remaining binding at 100 µM: 67%
P4HA1; HL-60 nuclear lysate
  remaining binding at 100 µM: 25%
P4HA1; K-562 nuclear lysate
  remaining binding at 100 µM: 31%
